# Measured values: patent US20210395696A1, “ISOLATED NASOPHARYNGEAL CARCINOMA CELLS AND DERIVATIVES PREPARED THEREOF” (INSTITUTE FOR MEDICAL RESEARCH, priority 2018, published 2021)
# What was measured:
# [1] = tested on: gfp-luc2-labelled PDX cells (NPC), subcutaneous model; test: Drug testing in subcutaneous tumour model of gfp-luc2-labelled PDX; type: in vivo, NSG mice; details: 2 mg/kg i.p. weekly for 3 weeks, bioluminescence imaging
# Procedure: (§1) All experiments were performed in accordance with national regulations and were approved by the AC UC of Ministry of Health, Malaysia. NSG mice, 6-8 weeks old were anaesthetized using Ketamine-Xylazine (100 mg/ml and 10 mg/ml).
# (§2) To test the effect of drug on tumour growth inhibition, subcutaneous and/or metastatic model were used. For subcutaneous model, 2×10^5 cells of gfp-luc2 cells were resuspended in RPMI and mixed with matrigel at 1:1 ratio and injected into the right flank. For metastatic model, 2×10^5 cells of gfp-luc2 cells were resuspended in 100 μl of RPMI and injected into left ventricle. Weekly bioluminescence imaging (BLI) were carried out to monitor the progress of tumour growth using VIS Spectrum.
# (§3) When tumour volume reached to 50-150 mm^3 or once the signal intensity reached 1×10^4 (average radiance, p/sec/cm^2/sr) mice were randomised into control or treatment group. Treatment commenced 35 days post inoculation. Mice were treated with vehicle (0.9% NaCl) or cisplatin (2 mg/kg) via intraperitoneal (i.p.) injection, weekly for 3 weeks. Tumour volume was measured thrice weekly using callipers and BLI was carried out weekly. Mice were observed daily for general wellbeing and tumour burden.
# [2] = tested on: gfp-luc2-labelled PDX cells (NPC), metastatic model; test: Drug testing in metastatic tumour model of gfp-luc2-labelled PDX (intra-cardiac injection); type: in vivo, NSG mice; details: metastatic model (left ventricle injection); 2 mg/kg i.p. weekly for 3 weeks; bioluminescence imaging
# Procedure: as §1, §2, §3
compound,measurement,setting,value
N.N.[Cl][Pt][Cl] [cisplatin],tumour response as measured by the luminescence signals intensity,[1],tumour regression
same,tumour response as measured by the luminescence signals intensity,[2],tumour regression
